Test results from article PMC10671050, “Alkyl Derivatives of Perylene Photosensitizing Antivirals: Towards Understanding the Influence of Lipophilicity” (International Journal of Molecular Sciences, 2023).
Converted amounts (≈) assume the structure as drawn. “Also recorded” adds a separate entry of the source. Read-outs that look alike come from different tables or passages of the source.

Columns and labels:
VSV Indiana strain = experiment: microbe, parasite or virus in culture; format: cell-based, vesicular stomatitis Indiana virus; details: Vesicular stomatitis virus, HEK-293T, 1 h, read-out: VSV, EC50
HSV-1, strain MacIntyre [1] = experiment: Photodynamic inactivation of HSV-1 (virus treated with compound, plaque assay); format: cell-based, herpes simplex virus-1; details: for HSV-1-inactivating effect after blue light irradiation: 10 µM
[2] = format: physicochemical; details: methanol, DPBF trap, 450–470 nm, relative to riboflavin
[3] = Cytotoxicity assay in Vero cells (Cell Counting Kit-8); format: cell-based; details: African green monkey, 48 h incubation, compared to controls (DMSO-treated cells)
Method: Vero cells were cultured for 24 h in 96-well plates to form a confluent monolayer and then were treated with the tested compounds at concentrations of 50 µM. After 48 h of cultivation in the dark at 37 °C under 5% CO2, the cell culture medium was aspirated. The potential cytotoxicity of the tested derivatives was determined based on cell viability using Cell Counting Kit-8 (Dojindo Molecular Technologies, Munich, Germany) according to the manufacturer’s instructions.

[4] = Solubilization in 15% DMSO in water; details: for solubility: aqueous with cosolvent or surfactant or cyclodextrin, kinetic from dmso stock
Method: To perform this measurement, the compound was dissolved in DMSO and then diluted with water to achieve a solution containing 15% DMSO. The solution was centrifuged, and the resulting supernatant was lyophilized (evaporated) to dryness. Subsequently, the dry residue was dissolved in DMSO, and the concentration of the compound dissolved in DMSO was determined spectrophotometrically.
The mixtures were then centrifuged at 20,000 rcf for 5 min; 500 μL of the supernatant were collected and lyophilized; 76 µL of DMSO were added to the dry residue, and the absorbance was measured at the maximum absorption wavelength for compounds in solutions diluted 200 times with methanol. The data obtained were recalculated according to the law of dilutions and Beer’s law to obtain the initial concentrations of the compounds solubilized in 15% DMSO in water.

HSV-1, strain MacIntyre [5] = experiment: HSV-1 titer reduction assay in Vero cells; details: 48 h; for viral replication and spread in HSV-1-infected Vero cell culture: inside cell culture (Figure 6C)
Vero cells = experiment: Light-induced cytotoxicity (photocytotoxicity) in Vero cells; format: cell-based, African Green Monkey; details: blue light 10 min vs daylight, 0–10 µM, 48 h
Method: (§1) Subsequently, cells treated with the compounds were irradiated with LEDs (465–480 nm, 30 mW/cm^2) for 10 min at RT. As a negative control, compound-treated cells were incubated for 10 min in daylight at RT. Then, both the irradiated and non-irradiated cell monolayers were incubated at 37 °C in the dark for 48 h. Subsequently, the cell culture medium was aspirated and the cytotoxicity of the tested perylene derivatives was determined based on cell viability using Cell Counting Kit-8 (Dojindo Molecular Technologies, Munich, Germany) according to the manufacturer’s instructions. Note: all manipulation with samples was performed in daylight (Figure 7K).

[6] = as above; format: cell-based, African Green Monkey; details: African green monkey, Vero cells; blue light 465–480 nm, 10 min, then 48 h; read-out: cell viability of Vero cells after irradiation
Method: as §1

[7] = Human alphaherpesvirus 1, 10 min, HSV-1 10^4 PFU/mL, 10 min in daylight, plaque assay, read-out: EC50 (µM) in Daylight
[8] = Human alphaherpesvirus 1, 10 min, HSV-1 10^4 PFU/mL, blue light 465–480 nm, 30 mW/cm^2, 10 min, plaque assay, read-out: EC50 (µM) under Blue Light
[9] = 10 µM, viral titer in medium supernatant

Row | Structure (SMILES) | EC50 (VSV Indiana strain) [µM] | 1O2 Quantum Yield [2] [%] | solubility [4] [µM] | anti-HSV-1 activity in Vero cells (HSV-1, strain MacIntyre [5]; [9]) | further results
1 | CCCCc1ccc2c3cccc4c(C#Cc5cn([C@@H]6O[C@H](CO)[C@@H](O)[C@H]6O)c(=O)[nH]c5=O)ccc(c5cccc1c52)c43 [Compound 10a, 5-[9(10)-Butylperylen-3-ylethynyl]-ribo-uridine] | 10 to 200 | 23.1 ± 2.2 | 0.02 (≈ 0.0115 µg/mL) | completely inhibited viral replication; also recorded: higher antiviral potency compared to acyclovir | Decrease in EC50 (Fold) (HSV-1, strain MacIntyre [1]): 20.3 fold; EC50 (HSV-1, strain MacIntyre [1]; [7]): 2.18 µM; EC50 (HSV-1, strain MacIntyre [1]; [8]): 0.107 µM; viability at 48 h, 10 µM [3]: ~80%; solubility in 15% DMSO in water ([4]; 15% DMSO in water): lower solubility; viral replication and spread in HSV-1-infected Vero cell culture (HSV-1, strain MacIntyre [5]; 10 µM): did not suppress viral replication and spread
2 | Nc1nc2c(ncn2COCCO)c(=O)[nH]1 [acyclovir, reference compound] |  |  |  |  | anti-HSV-1 activity in Vero cells (HSV-1, strain MacIntyre [5]; 50 µM): completely inhibited HSV-1 replication
3 | CCCCCCCCCCCCc1ccc2c3cccc4c(C#Cc5cn([C@@H]6O[C@H](CO)[C@@H](O)[C@H]6O)c(=O)[nH]c5=O)ccc(c5cccc1c52)c43 [Compound 10c, 5-[9(10)-Dodecylperylen-3-ylethynyl]-ribo-uridine] | > 200 | 28.7 ± 8.6 | 0.24 (≈ 0.165 µg/mL) | completely inactive | 
4 | O=c1[nH]c(=O)n([C@@H]2O[C@H](CO)[C@@H](O)[C@@H]2O)cc1C#Cc1ccc2c3cccc4cccc(c5cccc1c52)c43 [Compound 9, reference compound] | < 10 | 40.1 ± 4.0 |  |  | 
5 | CCCCCCCCc1ccc2c3cccc4c(C#Cc5cn([C@@H]6O[C@H](CO)[C@@H](O)[C@H]6O)c(=O)[nH]c5=O)ccc(c5cccc1c52)c43 [Compound 10b, 5-[9(10)-Octylperylen-3-ylethynyl]-ribo-uridine] | > 200 | 19.2 ± 1.5 | 0.59 (≈ 0.372 µg/mL) | only moderately active | HSV-1-inactivating effect after blue light irradiation (HSV-1, strain MacIntyre [1]): complete inactivation of HSV-1
6 | O=c1[nH]c(=O)n([C@@H]2O[C@H](CO)[C@@H](O)[C@H]2O)cc1C#Cc1ccc2c3cccc4cccc(c5cccc1c52)c43 [Compound 10, reference compound] | < 10 | 33.6 ± 1.2 |  |  | EC50 (HSV-1, strain MacIntyre [1]; [8]): 0.116 µM
7 | Oc1ccc(C#Cc2ccc3c4cccc5cccc(c6cccc2c63)c54)cc1Br [Compound 14, reference compound] | 10 to 200 |  |  |  | viability at 48 h, 10 µM [3]: 109 to 122%
8 | O=C(O)c1ccc(-c2ccc3c4cccc5cccc(c6cccc2c63)c54)s1 [Compound 15, 5-(perylene-3-yl)thiophenecarboxylic acid, reference compound] | < 10 | 73.2 ± 8.9 |  |  | EC50 (HSV-1, strain MacIntyre [1]; [8]): 0.038 µM
9 | CCCCCCCCc1ccc2c3cccc4c(C#Cc5cn([C@@H]6O[C@H](CO)[C@@H](O)[C@@H]6O)c(=O)[nH]c5=O)ccc(c5cccc1c52)c43 [Compound 9b, 5-[9(10)-Octylperylen-3-ylethynyl]-arabino-uridine] | 10 to 200 | 18.6 ± 2.3 | 0.38 (≈ 0.24 µg/mL) | only moderately active | HSV-1-inactivating effect after blue light irradiation (HSV-1, strain MacIntyre [1]): complete inactivation of HSV-1; photocytotoxicity to Vero cells (Vero cells): did not increase the cytotoxicity; viability at 48 h [6]: 115 to 128%; times less effectively dissolved than deoxy- and ribo- analogs (10b, 11b) ([4]; 15% DMSO in water): approximately 1.5 times
10 | CCCCCCCCCCCCc1ccc2c3cccc4c(C#Cc5cn([C@@H]6O[C@H](CO)[C@@H](O)[C@@H]6O)c(=O)[nH]c5=O)ccc(c5cccc1c52)c43 [Compound 9c, 5-[9(10)-Dodecylperylen-3-ylethynyl]-arabino-uridine] | > 175 | 22.5 ± 3.4 | 0.24 (≈ 0.165 µg/mL) | completely inactive | photocytotoxicity to Vero cells (Vero cells): did not increase the cytotoxicity; viability at 48 h [6]: 115 to 128%
11 | Oc1cccc(C#Cc2ccc3c4cccc5cccc(c6cccc2c63)c54)c1 [Compound 13, reference compound] | 10 to 200 |  |  |  | viability at 48 h, 10 µM [3]: 109 to 122%
12 | CCCCCCCCc1ccc2c3cccc4c(-c5ccc(C(=O)O)s5)ccc(c5cccc1c25)c43 [Compound 15b, 5-[9(10)-Octylperylen-3-yl]thiophene-2-carboxylic acid] | 10 to 200 | 72.9 ± 5.6 | 0.1 (≈ 0.0491 µg/mL) | complete inhibition; also recorded: higher antiviral potency compared to acyclovir | Decrease in EC50 (Fold) (HSV-1, strain MacIntyre [1]): >3.5 fold; fold less active than non-alkylated counterparts (12, 15) (HSV-1, strain MacIntyre [1]): ~3 fold; HSV-1-inactivating effect in daylight (HSV-1, strain MacIntyre [1]; 0–10 µM, daylight): only partial or no viral inactivation; also recorded: no virus-inactivating effect; EC50 (HSV-1, strain MacIntyre [1]; [7]): > 10 µM; EC50 (HSV-1, strain MacIntyre [1]; [8]): 2.89 µM; viral replication and spread in HSV-1-infected Vero cell culture (HSV-1, strain MacIntyre [5]; 10 µM): did not suppress viral replication and spread
13 | CCCCCCCCc1ccc2c3cccc4c(C#Cc5cn([C@H]6C[C@H](O)[C@@H](CO)O6)c(=O)[nH]c5=O)ccc(c5cccc1c52)c43 [Compound 11b, 5-[9(10)-Octylperylen-3-ylethynyl]-deoxy-uridine] | 10 to 200 | 21.0 ± 2.0 | 0.67 (≈ 0.412 µg/mL) | only moderately active | viability at 48 h, 10 µM [3]: ~120%
14 | CCCCCCCCCCCCc1ccc2c3cccc4c(-c5ccc(C(=O)O)s5)ccc(c5cccc1c25)c43 [Compound 15c, 5-[9(10)-Dodecylperylen-3-yl]thiophene-2-carboxylic acid] | 10 to 200 | 79.8 ± 8.9 | 0.05 (≈ 0.0273 µg/mL) | no anti-HSV-1 activity | HSV-1-inactivating effect after blue light irradiation (HSV-1, strain MacIntyre [1]): no virus-inactivating effect
15 | O=c1[nH]c(=O)n([C@H]2C[C@H](O)[C@@H](CO)O2)cc1C#Cc1ccc2c3cccc4cccc(c5cccc1c52)c43 [Compound 11, reference compound] | < 10 | 38.6 ± 0.8 |  |  | 
16 | CCCCc1ccc2c3cccc4c(-c5ccc(C(=O)O)s5)ccc(c5cccc1c25)c43 [Compound 15a, 5-[9(10)-Butylperylen-3-yl]thiophene-2-carboxylic acid] | 0.2 ± 0.2 | 91.6 ± 0.2 | 0.11 (≈ 0.0478 µg/mL) | complete inhibition; also recorded: higher antiviral potency compared to acyclovir | Decrease in EC50 (Fold) (HSV-1, strain MacIntyre [1]): 5.4 fold; fold less active than non-alkylated counterparts (12, 15) (HSV-1, strain MacIntyre [1]): ~3 fold; EC50 (HSV-1, strain MacIntyre [1]; HSV-1 10^4 PFU/mL, 10 min in daylight, plaque assay, read-out: EC50 (µM) in Daylight): 0.608 µM; EC50 (HSV-1, strain MacIntyre [1]; HSV-1 10^4 PFU/mL, blue light 465–480 nm, 30 mW/cm^2, 10 min, plaque assay, read-out: EC50 (µM) under Blue Light): 0.112 µM; EC50 (HSV-1, strain MacIntyre [1]; [7]): 0.61 µM; EC50 (HSV-1, strain MacIntyre [1]; [8]): ~0.1 µM; viral replication and spread in HSV-1-infected Vero cell culture (HSV-1, strain MacIntyre [5]; 10 µM): did not suppress viral replication and spread
17 | Oc1ccc(C#Cc2ccc3c4cccc5cccc(c6cccc2c63)c54)cc1 [Compound 12, reference compound] | 10 to 200 |  |  |  | EC50 (HSV-1, strain MacIntyre [1]; Human alphaherpesvirus 1, 10 min, read-out: EC50 (µM) under Blue Light): 0.472 µM; viability at 48 h, 10 µM [3]: 109 to 122%
